Marks after values point to notes of the source that are not given here.
Columns and labels:
Format in all cases: biochemical
[1] = Trolox equivalent antioxidant capacity (TEAC), ABTS
Experimental: The ABTS could serve as the free radical source. After the mixture reacted in the dark for 12 to 16 hours and generated stably blue-green ABTS, followed by adding 0.25 mL of various concentrations of sample solutions (i.e. pectin solution, PET-pectin solution, BHT solution or Vit. E solution listed in TABLE 2) and reacting for 10 minutes. And then, the light absorbance of those mixtures at 734 nm was detected by the spectrophotometer, and the result was listed in TABLE 4. Each data of TABLE 4 was referred to the mean of samples in at least or more than triplicate. […] E analogue; Sigma, St. Louis, Mo., U.S.A.) standard curve established by using different concentrations of trolox as a reference. The results of TEAC are shown in FIG. 2 and the fourth column of TABLE 4.

[2] = DPPH radical scavenging activity
Experimental: 4 mL of sample solutions (i.e. pectin solution, PET-pectin solution, BHT solution or Vit. […] And then, the light absorbance of those mixtures at 517 nm was detected by the spectrophotometer, and their DPPH radical scavenging activities (%) were calculated according to the following formula (I), in which the lower light absorbance was referred to the stronger DPPH radical scavenging activity. Each data of TABLE 4 is referred to the mean of samples in triplicate and the result is listed in the third column of TABLE 4. [formula]

[3] = Reducing power (Prussian blue, OD700 nm)
Experimental: The reducing power of PET-pectin was determined by using the yield of Prussian blue [ferric ferrocyanide; […] In brief, three-valent […] ion (Fe^3+) of red blood salt (potassium […]; […] And then, the light absorbance of Prussian blue at 700 nm was detected to evaluate the reducing power, in which the higher light absorbance was referred to the stronger reducing power. This EXAMPLE could use the conventional method. The PET-pectin was prepared to various concentrations, each 20 μL aliquot of the sample solutions (i.e. pectin solution, PET-pectin solution, BHT solution or Vit. E solution listed in TABLE 2) was added with 50 μL of 0.2 M phosphate buffer (pH 6.6) containing 1% red blood salt [K3Fe(CN)6], incubated in water bath at 50° C. for 20 minutes and added with 50 μL of 10% trichloroacetic acid (TCA) solution. […] The absorbance at 700 nm is measured by the spectrophotometer and listed in the fifth column of TABLE 4, in which the higher light absorbance is referred to the stronger reducing power. Each data of TABLE 4 is referred to the mean of samples in at least or more than triplicate.

Row | SMILES | TEAC (mM Trolox) ([1]; concentration 0.01 mg/mL) | TEAC (mM Trolox) ([1]; concentration 0.10 mg/mL) | DPPH radical scavenging activity(%) ([2]; concentration 0.01 mg/mL) | DPPH radical scavenging activity(%) ([2]; concentration 0.10 mg/mL) | Reducing Power (OD700 nm) ([3]; concentration 0.01 mg/mL) | Reducing Power (OD700 nm) ([3]; concentration 0.10 mg/mL)
1 | Cc1cc(C(C)(C)C)c(O)c(C(C)(C)C)c1 [Butylated hydroxytoluene (BHT), Butylated hydroxytoluene] | 0.4 ± 0.0^d mM Trolox | 1.3 ± 0.2^c mM Trolox | 5.2 ± 0.4^e % | 49.2 ± 2.9^c % | 0.5 ± 0.0^d OD700 nm | 1.7 ± 0.1^b OD700 nm
2 | Cc1c(C)c2c(c(C)c1O)CC[C@@](C)(CCC[C@H](C)CCC[C@H](C)CCCC(C)C)O2 [α-tocopherol (Vit. E), α-tocopherol] | 0.5 ± 0.0^d mM Trolox | 3.5 ± 0.1^b mM Trolox | 46.1 ± 0.4^d % | 96.8 ± 0.5^a % | 0.6 ± 0.0^d OD700 nm | 2.5 ± 0.0^a OD700 nm
